According to patent US12064420B2, “Tie-2 activators targeting the Schlemm's canal” (EyePoint Pharmaceuticals, Inc., priority 2019, dated 2024):

Tests used:
[1] = tested on: patients with moderate to severe non-proliferative diabetic retinopathy; assay: Phase 2 48-week trial: IOP after subcutaneous Compound 1 QD or BID, non-proliferative diabetic retinopathy; assay type: in vivo, human; settings: for mean reduction in IOP compared to placebo: MMRM ANCOVA; for Week 12 IOP change from BL, mean (SD) / Week 12 IOP, mean (SD) / Week 36 IOP change from BL, mean (SD) / Week 36 IOP, mean (SD) / Week 48 IOP change from BL, mean (SD) / Week 48 IOP, mean (SD) / Week 24 IOP change from BL, mean (SD) / Week 24 IOP, mean (SD): averaged over both eyes; for Week 24 IOP change from BL, mean (SD) / Week 24 IOP, mean (SD): measured predose
Description: Eligible subjects were aged 18 to 80 years with moderate to severe NPDR. The major inclusion criteria for the qualified eyes included Early Treatment Diabetic Retinopathy Study (ETDRS) Severity Score≥43 and ≤53, no evidence of central involved diabetic macular edema (DME) and ETDRS≥70 letters using the ETDRS visual acuity charts. Study eye ocular exclusion criteria included uncontrolled glaucoma defined as IOP≥30 mm Hg on maximum IOP reduction therapy. Subjects were randomized 1:1:1 to either Compound 1, 15 mg once daily (QD), Compound 1, 15 mg twice daily (BID), or placebo BID treatment groups. Subjects self-administered the masked study medication (Compound 1 or placebo) supplied as sterile pre-filled single-use syringes. Subjects visited the clinical site monthly during the 48-week treatment period. A battery of comprehensive ophthalmic evaluations including IOP assessments were conducted every 12-weeks with either applanation tonometry or Tono-Pen® and the methodology was consistent throughout the study. On Day 1 and Week 24, IOP was measured prior to dosing. IOP data were analyzed using a mixed-model repeated measures ANCOVA, with visit as the repeated measure within subject. The model included change from baseline as the dependent variable. The p-value from the model was adjusted by baseline IOP. 167 patients with moderate to severe non-proliferative diabetic retinopathy (NPDR) without diabetic macular edema (DME) and a visual acuity of 20/40 or better were enrolled in a 48-week study of the effect of Compound 1 (sodium salt) in the treatment of NPDR. The IOP was measured at baseline, and at weeks 12, 24, 36, and 48. The trial consisted of three study arms: 1) patients receiving 15 mg of Compound 1 subcutaneously BID; 2) patients receiving placebo subcutaneously QD, and 15 mg of Compound 1 subcutaneously QD; and 3) patients receiving a placebo subcutaneously BID.

[2] = tested on: ocular normotensive New Zealand White rabbits; assay: IOP in ocular normotensive rabbits, topical ocular or subcutaneous Compound 1; assay type: in vivo, rabbit
Experimental: To examine the effect of Compound 1 on IOP, Compound 1 was delivered either by subcutaneous injection, or by topical drops to ocular normotensive New Zealand White rabbits, and IOP was followed over time (FIGS. 3A-3C). For this study, 25 female New Zealand White rabbits were administered the sodium salt of Compound 1 for seven days QD or BID topically (30 μL drop) into both eyes, or twice daily subcutaneously, or vehicle twice daily topically into both eyes. Eye drops (4% Compound 1 or vehicle) were administered, with study staff masked to treatment. Five dose groups (5 rabbits per group) were tested: 1) vehicle control—15% HPβCD (+1% dextrose); 2) 1.5% (15 mg/mL) Compound 1 BID; 3) 4% (40 mg/mL) Compound 1 BID; 4) 4% (40 mg/mL) Compound 1 QD; and 5) 10 mg/kg (40 mg/mL) Compound 1 administered subcutaneously BID. IOP measurements were performed at baseline (prior to the start of dosing), and once daily on days 2-8. Prior to performing IOP measurements, 1 to 2 drops of a 0.5% proparacaine solution were applied to the eye as a topical anesthetic. IOP measurements were performed with a pneumotonometer 2 hours after morning dosing. The only exceptions were Day 8 measurements, which were performed 24 hours after the final dose. IOP data were analyzed using a mixed-design two-factor ANOVA, with time as the within-subjects factor and treatment as the between-subjects factor. IOP values for Day 7 and Day 8 were analyzed using one-way ANOVA. The change from baseline IOP on Day 7 and on Day 8 was calculated for each animal, and the resulting values were analyzed using one-way ANOVA. Area under the curve (AUC) was calculated for all morning IOP measurements throughout the study for each group; AUC values for the different groups were analyzed using one-way ANOVA. Where appropriate, post hoc testing was performed using Tukey's multiple comparisons tests. The level of significance was set at 0.05.

mouse eyes = assay: Outflow facility in enucleated mouse eyes (iPerfusion); assay type: in vivo
Experimental: An iPerfusion system was used to measure outflow facility in mice. The system is designed to measure outflow facility in paired mouse eyes having low flow rates (nL/min). Outflow facility is a measure of the ability of aqueous humor to flow from the trabecular meshwork to maintain a steady state TOP.
After three days of treatment with either Compound 1 or placebo, eyes were enucleated, and outflow facility was measured in a masked fashion. Briefly, mice were euthanized using isoflurane and freshly enucleated, paired mouse eyes were mounted on two stabilization platforms in temperature-controlled perfusion chambers by using a small amount of cyanoacrylate glue. […]
Both eyes of the mice were perfused at 9 mmHg for 45-60 min to allow acclimatization and to deliver the drug or vehicle to the outflow pathway, followed by 9 sequential pressure steps of 4.5, 6, 7.5, 9, 10.5, 12, 15, 18, and 21 mmHg. The outflow from the eye was measured at multiple pressures to calculate the outflow facility.
A non-linear flow-pressure model was used to account for the pressure dependence of outflow facility in mice. The reference facility was analyzed at a reference pressure of 8 mmHg, which approximates the physiological pressure drop across the conventional outflow pathway in living mice. […]

[3] = 10 mg/kg BID subcutaneous injection

## COC(=O)N[C@@H](Cc1ccccc1)C(=O)N[C@@H](Cc1ccc(NS(=O)(=O)O)cc1)c1csc(-c2cccs2)n1 [Compound 1, 4-{(S)-2-[(S)-2-(Methoxycarbonylamino)-3-phenylpropanamido]-2-[2-(thiophen-2-yl)thiazol-4-yl]ethyl}phenylsulfamic acid]
[1]; 15 mg SC BID
  mean reduction in IOP compared to placebo: 1.15 mmHg
  Week 12 IOP change from BL, mean (SD): −0.91 (3.20) mmHg
  Week 12 IOP, mean (SD): 14.6 (2.93) mmHg
  Week 36 IOP change from BL, mean (SD): −1.48 (3.48) mmHg
  Week 36 IOP, mean (SD): 14.0 (2.74) mmHg
  Week 48 IOP change from BL, mean (SD): −0.94 (3.00) mmHg
  Week 48 IOP, mean (SD): 14.6 (2.73) mmHg
  Week 24 IOP change from BL, mean (SD): −1.27 (3.31) mmHg
  Week 24 IOP, mean (SD): 14.2 (2.60) mmHg
[1]; 15 mg SC QD
  mean reduction in IOP compared to placebo: 0.70 mmHg
  Week 12 IOP change from BL, mean (SD): −0.56 (2.83) mmHg
  Week 12 IOP, mean (SD): 15.3 (2.75) mmHg
  Week 36 IOP change from BL, mean (SD): −0.94 (3.39) mmHg
  Week 36 IOP, mean (SD): 14.9 (3.58) mmHg
  Week 48 IOP change from BL, mean (SD): −0.72 (2.80) mmHg
  Week 48 IOP, mean (SD): 15.2 (2.84) mmHg
  Week 24 IOP change from BL, mean (SD): −0.56 (2.99) mmHg
  Week 24 IOP, mean (SD): 15.3 (2.90) mmHg
[2]; [3]
  IOP-lowering effect on the last day of dosing (Day 7): the effect did not persist
  IOP-lowering effect relative to vehicle control on Days 3 and 4: significant maximum IOP-lowering effect
[2]; 4% topical ocular QD or BID
  area under the curve for IOP values over 7 days versus vehicle, 1.5% TO BID or 10 mg/kg SC BID: statistically-significantly lower
[2]; daily topical ocular dosing of 4.0%
  time to steady-state effect on IOP: steady-state effect on IOP was observed by Day 3
[2]; rabbits
  IOP reduction, topical ocular versus subcutaneous administration: larger with topical ocular administration than with subcutaneous administration
[2]; topical ocular 4% QD and BID, 7 days
  IOP-lowering effect versus vehicle control or 1.5% Compound 1 BID: significantly larger IOP-lowering effect
[2]; two high-dose (4%) topical ocular groups
  IOP on Day 8, 24 hours after the last dose: significant reduction in IOP persisted on Day 8
Mouse eyes; eyes dosed three days QD with 4% Compound 1, perfused with 10 μM, reference pressure 8 mmHg
  outflow facility: 3.4±0.4 nL/min/mmHg
Mouse eyes; versus placebo-treated contralateral eyes
  increase of outflow facility compared to control: 33%
